Source: ChEMBL document CHEMBL6092138, “Discovery of the potent covalent inhibitor with an acrylate warhead for SARS-CoV-2 3CL protease” (Bioorg Med Chem Lett, 2024)

System: SARS-CoV-2
Experiment: Antiviral activity against replicon RNA harboring SARS-CoV-2 infected in human Huh-7 cells assessed as inhibition of viral replication
Type: functional, organism-based
Conditions: Severe acute respiratory syndrome coronavirus 2, Huh-7

SMILES | EC50
CC(C)(C)[C@H](NC(=O)C(F)(F)F)C(=O)N1C[C@H]2[C@@H]([C@H]1C(=O)N[C@H](/C=C/C(N)=O)C[C@@H]1CCNC1=O)C2(C)C | > 5000 nM
CC(C)(C)[C@H](NC(=O)C(F)(F)F)C(=O)N1C[C@H]2[C@@H]([C@H]1C(=O)N[C@H](C#N)C[C@@H]1CCNC1=O)C2(C)C [NIRMATRELVIR] | 23 nM
COC(=O)/C=C/[C@H](C[C@@H]1CCNC1=O)NC(=O)[C@@H]1[C@@H]2[C@H](CN1C(=O)[C@@H](NC(=O)C(F)(F)F)C(C)(C)C)C2(C)C | 45 nM
